In ChEMBL document CHEMBL1151378, “Anticancer indole alkaloids of Rhazya stricta” (1981):
Converted amounts (≈) assume the structure as drawn.

Tested on: KB
Assay: Cytotoxicity against human KB cells
Format: functional
Conditions: read-out: ED50 (the source's name)

Compound | EC50
CCC1CCCN(CCc2c([C@H]3CCCc4c(CCN5CCCC(CC)C5)c5ccccc5n43)[nH]c3ccccc23)C1 (stereo partly drawn) | 0.5 mg/L (≈ 0.885 µM)
CCC1CCCN(CCc2c([C@@]3(COC(C)=O)CC[C@@H](COC(C)=O)c4c(CCN5CCCC(CC)C5)c5ccccc5n43)[nH]c3ccccc23)C1 (stereo partly drawn) | 2.4 mg/L (≈ 3.39 µM)
C/C=C1/CN2[C@H]3Cc4c([nH]c5ccccc45)[C@@H]2C[C@@H]1[C@@]3(CO)C(=O)OC [POLYNEURIDINE] | > 100 mg/L
CCC1CCCN(CCc2c([C@@]3(CO)CC[C@@H](CO)c4c(CCN5CCCC(CC)C5)c5ccccc5n43)[nH]c3ccccc23)C1 (stereo partly drawn) [TETRAHYDROSECAMINEDIOL] | 0.0038 mg/L (≈ 0.00608 µM)
CCC1CCCN(CCc2c([C@@]3(C(=O)OC)CC[C@@H](C(=O)OC)c4c(CCN5CCCC(CC)C5)c5ccccc5n43)[nH]c3ccccc23)C1 (stereo partly drawn) [TETRAHYDROSECAMINE] | 0.69 mg/L (≈ 1.01 µM)
C/C=C(/C=O)[C@@H]1C[C@H]2c3[nH]c4ccccc4c3CCN2C=C1C(=O)OC [VALLESIACHOTAMINE] | 3.56 mg/L (≈ 10.2 µM)

Tested on: P388
Assay: Cytotoxicity against mouse P388 cells
Format: functional
Conditions: read-out: ED50 (the source's name)

Compound | EC50
CCC1CCCN(CCc2c([C@H]3CCCc4c(CCN5CCCC(CC)C5)c5ccccc5n43)[nH]c3ccccc23)C1 (stereo partly drawn) | 0.29 mg/L (≈ 0.513 µM)
CCC1CCCN(CCc2c([C@@]3(COC(C)=O)CC[C@@H](COC(C)=O)c4c(CCN5CCCC(CC)C5)c5ccccc5n43)[nH]c3ccccc23)C1 (stereo partly drawn) | 1.6 mg/L (≈ 2.26 µM)
C/C=C1/CN2[C@H]3Cc4c([nH]c5ccccc45)[C@@H]2C[C@@H]1[C@@]3(CO)C(=O)OC [POLYNEURIDINE] | > 100 mg/L
C/C=C1/CN2CC[C@]34C(=C(C(=O)OC)[C@H]1C[C@H]23)Nc1ccc(O)cc14 [SEWARINE] | 2.7 mg/L (≈ 7.98 µM)
CCC1CCCN(CCc2c([C@@]3(CO)CC[C@@H](CO)c4c(CCN5CCCC(CC)C5)c5ccccc5n43)[nH]c3ccccc23)C1 (stereo partly drawn) [TETRAHYDROSECAMINEDIOL] | 0.33 mg/L (≈ 0.528 µM)
CCC1CCCN(CCc2c([C@@]3(C(=O)OC)CC[C@@H](C(=O)OC)c4c(CCN5CCCC(CC)C5)c5ccccc5n43)[nH]c3ccccc23)C1 (stereo partly drawn) [TETRAHYDROSECAMINE] | 0.4 mg/L (≈ 0.587 µM)
C/C=C(/C=O)[C@@H]1C[C@H]2c3[nH]c4ccccc4c3CCN2C=C1C(=O)OC [VALLESIACHOTAMINE] | 1.1 mg/L (≈ 3.14 µM)
